The values that follow come from patent US6274596A, “Benzoquinoline derivatives useful as antibacterial agents” (priority 1999, dated 2001).

≈ marks a conversion by molar mass, not a printed value. Bounds are passed on as bounds.

The first experiment relates to S. Aureus (Rif-res). Kind of experiment: MBC, S. Aureus (Rif-res). It counts as cell-based. To be noted: Staphylococcus aureus, read-out: MBG. How it is done:
(§1) The antimicrobial activity of a compound or formulation according to the invention is determined by exposing a culture comprising a bacterial species to different concentrations of the compound or formulation and monitoring the effects on growth relative to a control culture not exposed to the compound. Any method known in the art may be used to assess bacterial growth. Antimicrobial effects are expressed as Minimal Inhibitory Concentration (MIC) and Minimum Bactericidal Concentration (MBC).
(§2) The minimum bactericidal concentration (MBC) is defined as the concentration of antimicrobial agent from which no colonies grow on petri plates or in the medium. In practice, the MBC is arbitrarily defmed as the concentration at which a 1000-fold reduction in colony forming units is observed with respect to the original inoculum (survival of 0.1%). Typically, the wells from a MIC microliter plate using a 96-well inoculation grid into a fresh microliter plate containing 100 μL Mueller-Hinton broth per well. The MBC plates are incubated at 37° C. for 16-20 hrs and the MBC values are determined.
(§3) The antimicrobial activities of the compounds of the invention, expressed as MIC and MBC, were determined as described above, using as tester strains wild-type S. aureus, rifampicin-resistant S. aureus, wild-type E. coli, and E. coli cells that had been permeabilized.
As for `CCN1CCC(c2ccc(Nc3ccnc4cc5ccccc5cc34)cc2)CC1` [N-[4-(1-ethyl-4-piperidyl)phenyl]benzo[g]quinolin-4-amine], the MBC was 32 µg/mL (≈ 83.9 µM).
On to `c1ccc2cc3c(Nc4ccc(N5CCCCC5)cc4)ccnc3cc2c1` [N-[4-(1-piperidinyl)phenyl]benzo[g]quinolin-4-amine], for which the MBC was found to be 2 µg/mL (≈ 5.66 µM).
On the same count and under the same terms, under `C#CCCN1CCN(c2ccc(Nc3ccnc4cc5ccccc5cc34)cc2)CC1` [N-{4-[4-(3-butynyl)-1-piperazinyl]phenyl}benzo[g]quinolin-4-amine] stands 16 µg/mL (≈ 39.4 µM); under `CCN(CC)CCNc1ccc(Nc2ccnc3cc4ccccc4cc23)cc1` [N^1-benzo[g]quinolin-4-yl-N^4-[2-(diethylamino)ethyl]-1,4-benzenediamine], 8 µg/mL (≈ 20.8 µM).
Same read-out and setting: as for `CC(C)Nc1ccc(Nc2ccnc3cc4ccccc4cc23)cc1` [N^1-benzo[g]quinolin-4-yl-N^4-isopropyl-1,4,benzenediamine], the figure is 32 µg/mL (≈ 97.7 µM).

For the next experiment, the system named is E. coli (BAS). In words: MIC, broth microdilution, E. coli (BAS). The following applies: Escherichia coli, read-out: MIC. It counts as cell-based. On the procedure:
as §1
(§4) The MIC is expressed as a range between the concentration at which no growth is observed and the concentration of the dilution which immediately follows.
(§5) Typically, MIC is measured using a broth microdilution assay as follows. Dilution of candidate antimicrobial compounds in culture medium is performed in a sterile, covered 96-well microtiter plate with flat bottom wells (Costar #9017). The final concentrations of the compounds are typically 100, 50, 25, 12.5, 6.25, 3.12, 1.56, 0.78, 0.39, 0.20, 0.10, and 0.05 μg/mL, respectively. Culture medium only (containing no bacteria) is also included as a negative control for each plate. Ampicillin and rifamnpin are used as positive controls against all bacterial strains in every experiment.
(§6) The overnight culture of a single colony is diluted in sterile medium so that, after inoculation, each well contains approximately 5×10^5CFU/mL. Within 15 minutes of preparation, […] of the adjusted inoculum suspension is added to the microliter plate. Each well is diluted with an equal volume of the antimicrobial compounds or control solution. The inoculated microtiter plate is typically incubated at 35° C. for 16-20 hours. The turbidity of each well is determined by measuring the absorbance at 595 nm using a BioRad Model 3550-UV microplate reader.
as §3
In general terms: Broth dilution looks for growth in wells or tubes with falling amounts of substance.
As for `CCN1CCC(c2ccc(Nc3ccnc4cc5ccccc5cc34)cc2)CC1` [N-[4-(1-ethyl-4-piperidyl)phenyl]benzo[g]quinolin-4-amine], the MIC – broadly, the smallest concentration in the dilution series that meets the test's criterion for growth inhibition – amounted to 32 µg/mL (≈ 83.9 µM).
On the same count and under the same terms, as for `c1ccc2cc3c(Nc4ccc(N5CCCCC5)cc4)ccnc3cc2c1` [N-[4-(1-piperidinyl)phenyl]benzo[g]quinolin-4-amine], the figure is 2 µg/mL (≈ 5.66 µM); as for `C#CCCN1CCN(c2ccc(Nc3ccnc4cc5ccccc5cc34)cc2)CC1` [N-{4-[4-(3-butynyl)-1-piperazinyl]phenyl}benzo[g]quinolin-4-amine], more than 64 µg/mL.
The same measure, in the same setting: under `CCN(CC)CCNc1ccc(Nc2ccnc3cc4ccccc4cc23)cc1` [N^1-benzo[g]quinolin-4-yl-N^4-[2-(diethylamino)ethyl]-1,4-benzenediamine] stands 4 µg/mL (≈ 10.4 µM); under `CC(C)Nc1ccc(Nc2ccnc3cc4ccccc4cc23)cc1` [N^1-benzo[g]quinolin-4-yl-N^4-isopropyl-1,4,benzenediamine], more than 64 µg/mL.

A further experiment concerns E. coli (BAS). In words: MBC, E. coli (BAS). The following applies: Escherichia coli, minimum bactericidal concentration, read-out: MBG. It counts as cell-based. On the procedure:
as §1, §2, §3
On to `CCN1CCC(c2ccc(Nc3ccnc4cc5ccccc5cc34)cc2)CC1` [N-[4-(1-ethyl-4-piperidyl)phenyl]benzo[g]quinolin-4-amine], for which the MBC turned out to be 32 µg/mL (≈ 83.9 µM).
Same read-out and setting: as for `c1ccc2cc3c(Nc4ccc(N5CCCCC5)cc4)ccnc3cc2c1` [N-[4-(1-piperidinyl)phenyl]benzo[g]quinolin-4-amine], the figure is 2 µg/mL (≈ 5.66 µM); as for `C#CCCN1CCN(c2ccc(Nc3ccnc4cc5ccccc5cc34)cc2)CC1` [N-{4-[4-(3-butynyl)-1-piperazinyl]phenyl}benzo[g]quinolin-4-amine], more than 64 µg/mL.
In the case of `CCN(CC)CCNc1ccc(Nc2ccnc3cc4ccccc4cc23)cc1` [N^1-benzo[g]quinolin-4-yl-N^4-[2-(diethylamino)ethyl]-1,4-benzenediamine], the MBC came out at 16 µg/mL (≈ 41.6 µM).
Same read-out and setting: as for `CC(C)Nc1ccc(Nc2ccnc3cc4ccccc4cc23)cc1` [N^1-benzo[g]quinolin-4-yl-N^4-isopropyl-1,4,benzenediamine], the figure is more than 64 µg/mL.

A further experiment deals with S. Aureus (Rif-res). Kind of experiment: MIC, broth microdilution, S. Aureus (Rif-res). It counts as cell-based. To be noted: Staphylococcus aureus. How it is done: as §1, §4, §5, §6, §3
For the compound `CCN1CCC(c2ccc(Nc3ccnc4cc5ccccc5cc34)cc2)CC1` [N-[4-(1-ethyl-4-piperidyl)phenyl]benzo[g]quinolin-4-amine], the MIC came out at 32 µg/mL (≈ 83.9 µM).
Turning to `c1ccc2cc3c(Nc4ccc(N5CCCCC5)cc4)ccnc3cc2c1` [N-[4-(1-piperidinyl)phenyl]benzo[g]quinolin-4-amine], the MIC was found to be 2 µg/mL (≈ 5.66 µM).
Same read-out and setting: under `C#CCCN1CCN(c2ccc(Nc3ccnc4cc5ccccc5cc34)cc2)CC1` [N-{4-[4-(3-butynyl)-1-piperazinyl]phenyl}benzo[g]quinolin-4-amine] stands 16 µg/mL (≈ 39.4 µM).
The same measure, in the same setting: under `CCN(CC)CCNc1ccc(Nc2ccnc3cc4ccccc4cc23)cc1` [N^1-benzo[g]quinolin-4-yl-N^4-[2-(diethylamino)ethyl]-1,4-benzenediamine] stands 8 µg/mL (≈ 20.8 µM); under `CC(C)Nc1ccc(Nc2ccnc3cc4ccccc4cc23)cc1` [N^1-benzo[g]quinolin-4-yl-N^4-isopropyl-1,4,benzenediamine], 32 µg/mL (≈ 97.7 µM).

A further experiment deals with bacterial RNA polymerase. Kind of experiment: in vitro transcription, bacterial versus human RNA polymerase. The experiment is classed as biochemical. The following applies: in words; RNA polymerase from S. aureus, E. coli or human, pTaq promoter template. An excerpt:
The compounds useful for inclusion in the pharmaceutical formulations of the invention can be identified by their ability to bind to, and/or inhibit the activity of, one or more bacterial RNA polymerases. RNA polymerase as used herein refers to DNA-dependent RNA polymerase holoenzyme, which is a complex consisting of five protein subunits: two copies of the a subunit and one copy each of the β, β', and σ subunits. The α, β and β' subunits are invariant in a given bacterial species and together form core RNA polymerase.
RNA polymerase inhibition activity of a compound can be detected by including the compound in an in vitro transcription reaction and comparing the level of transcription that occurs in the presence and absence of the compound. […] After incubation for 60 minutes at 25° C., the reaction is terminated with 100 μl 10% TCA, which also precipitates the newly transcribed RNA, and incorporation of radioactivity into RNA is quantified. […]
It will be understood that useful antimicrobial compositions and formulations act selectively on microbial pathogens. […] That is, the inhibitory activity of a particular compound towards an animal RNA polymerase may be measured in parallel with a bacterial RNA polymerase. […]
For the compound `c1ccc2cc3c(Nc4ccc(N5CCCCC5)cc4)ccnc3cc2c1` [N-[4-(1-piperidinyl)phenyl]benzo[g]quinolin-4-amine], the “selectivity for bacterial RNA polymerase relative to human RNA polymerase” value was “highest degree of selectivity for bacterial RNA polymerases”.

The test system of another experiment is E. coli (MCR106). Kind of experiment: MIC, broth microdilution, E. coli (MCR106). The experiment is classed as cell-based. To be noted: Escherichia coli. How it is done:
as §1, §4, §5, §6, §3
`c1ccc2cc3c(Nc4ccc(N5CCCCC5)cc4)ccnc3cc2c1` [N-[4-(1-piperidinyl)phenyl]benzo[g]quinolin-4-amine]: the MIC was more than 64 µg/mL.
The same measure, in the same setting: under `C#CCCN1CCN(c2ccc(Nc3ccnc4cc5ccccc5cc34)cc2)CC1` [N-{4-[4-(3-butynyl)-1-piperazinyl]phenyl}benzo[g]quinolin-4-amine] stands more than 64 µg/mL; under `CCN(CC)CCNc1ccc(Nc2ccnc3cc4ccccc4cc23)cc1` [N^1-benzo[g]quinolin-4-yl-N^4-[2-(diethylamino)ethyl]-1,4-benzenediamine], 8 µg/mL (≈ 20.8 µM); under `CC(C)Nc1ccc(Nc2ccnc3cc4ccccc4cc23)cc1` [N^1-benzo[g]quinolin-4-yl-N^4-isopropyl-1,4,benzenediamine], more than 64 µg/mL.

Still in this experiment, the particulars now being: in words; MIC and MBC, E. coli strain not named.
For the compound `c1ccc2cc3c(Nc4ccc(N5CCCCC5)cc4)ccnc3cc2c1` [N-[4-(1-piperidinyl)phenyl]benzo[g]quinolin-4-amine], the “antimicrobial activity against E. coli” value was “less effective against E. coli”.

The next experiment has as its system E. coli (MCR106). Kind of experiment: MBC, E. coli (MCR106). The following applies: Escherichia coli, minimum bactericidal concentration, read-out: MBG. It counts as cell-based. On the procedure: as §1, §2, §3
For `CCN1CCC(c2ccc(Nc3ccnc4cc5ccccc5cc34)cc2)CC1` [N-[4-(1-ethyl-4-piperidyl)phenyl]benzo[g]quinolin-4-amine], the MBC came out at 32 µg/mL (≈ 83.9 µM).
As to `c1ccc2cc3c(Nc4ccc(N5CCCCC5)cc4)ccnc3cc2c1` [N-[4-(1-piperidinyl)phenyl]benzo[g]quinolin-4-amine], the MBC is more than 64 µg/mL.
The same measure, in the same setting: under `C#CCCN1CCN(c2ccc(Nc3ccnc4cc5ccccc5cc34)cc2)CC1` [N-{4-[4-(3-butynyl)-1-piperazinyl]phenyl}benzo[g]quinolin-4-amine] stands more than 64 µg/mL; under `CCN(CC)CCNc1ccc(Nc2ccnc3cc4ccccc4cc23)cc1` [N^1-benzo[g]quinolin-4-yl-N^4-[2-(diethylamino)ethyl]-1,4-benzenediamine], 16 µg/mL (≈ 41.6 µM); under `CC(C)Nc1ccc(Nc2ccnc3cc4ccccc4cc23)cc1` [N^1-benzo[g]quinolin-4-yl-N^4-isopropyl-1,4,benzenediamine], more than 64 µg/mL.

The next experiment has as its system S. Aureus. Kind of experiment: MBC, S. Aureus. The experiment is classed as cell-based. To be noted: Staphylococcus aureus, read-out: MBG. On the procedure: as §1, §2, §3
As to `CCN1CCC(c2ccc(Nc3ccnc4cc5ccccc5cc34)cc2)CC1` [N-[4-(1-ethyl-4-piperidyl)phenyl]benzo[g]quinolin-4-amine], the MBC is 64 µg/mL (≈ 168 µM).
In the case of `c1ccc2cc3c(Nc4ccc(N5CCCCC5)cc4)ccnc3cc2c1` [N-[4-(1-piperidinyl)phenyl]benzo[g]quinolin-4-amine], the MBC came out at 4 µg/mL (≈ 11.3 µM).
In the case of `C#CCCN1CCN(c2ccc(Nc3ccnc4cc5ccccc5cc34)cc2)CC1` [N-{4-[4-(3-butynyl)-1-piperazinyl]phenyl}benzo[g]quinolin-4-amine], the MBC was 16 µg/mL (≈ 39.4 µM).
On the same count and under the same terms, as for `CCN(CC)CCNc1ccc(Nc2ccnc3cc4ccccc4cc23)cc1` [N^1-benzo[g]quinolin-4-yl-N^4-[2-(diethylamino)ethyl]-1,4-benzenediamine], the figure is 16 µg/mL (≈ 41.6 µM); as for `CC(C)Nc1ccc(Nc2ccnc3cc4ccccc4cc23)cc1` [N^1-benzo[g]quinolin-4-yl-N^4-isopropyl-1,4,benzenediamine], 8 µg/mL (≈ 24.4 µM).

In a further experiment the test system is S. Aureus. In words: MIC, broth microdilution, S. Aureus. It counts as cell-based. The following applies: Staphylococcus aureus; S. Aureus; read-out: MIC. How it is done:
as §1, §4, §5, §6, §3
For `CCN1CCC(c2ccc(Nc3ccnc4cc5ccccc5cc34)cc2)CC1` [N-[4-(1-ethyl-4-piperidyl)phenyl]benzo[g]quinolin-4-amine], the MIC amounted to 64 µg/mL (≈ 168 µM).
Turning to `c1ccc2cc3c(Nc4ccc(N5CCCCC5)cc4)ccnc3cc2c1` [N-[4-(1-piperidinyl)phenyl]benzo[g]quinolin-4-amine], the MIC came to 2 µg/mL (≈ 5.66 µM).
On the same count and under the same terms, under `C#CCCN1CCN(c2ccc(Nc3ccnc4cc5ccccc5cc34)cc2)CC1` [N-{4-[4-(3-butynyl)-1-piperazinyl]phenyl}benzo[g]quinolin-4-amine] stands 16 µg/mL (≈ 39.4 µM).
On to `CCN(CC)CCNc1ccc(Nc2ccnc3cc4ccccc4cc23)cc1` [N^1-benzo[g]quinolin-4-yl-N^4-[2-(diethylamino)ethyl]-1,4-benzenediamine], for which the MIC worked out at 16 µg/mL (≈ 41.6 µM).
On the same count and under the same terms, as for `CC(C)Nc1ccc(Nc2ccnc3cc4ccccc4cc23)cc1` [N^1-benzo[g]quinolin-4-yl-N^4-isopropyl-1,4,benzenediamine], the figure is 8 µg/mL (≈ 24.4 µM).

Still in this experiment, the particulars now being: in words; MIC and MBC, compared with the other compounds.
Regarding `c1ccc2cc3c(Nc4ccc(N5CCCCC5)cc4)ccnc3cc2c1` [N-[4-(1-piperidinyl)phenyl]benzo[g]quinolin-4-amine], the “antimicrobial activity against S. aureus” value is “most potent antimicrobial activity against s. aureus”.
